Patent publication US20180153870A1, “BIPERIDEN FOR TREATING CANCER” (Universitätsklinikum Hamburg-Eppendorf, priority 2015, published 2018)

Columns and labels:
[1] = system: lung carcinoma cell lines A549 und H1299; assay: MTT proliferation assay, lung carcinoma cell lines; type: cell-based, human; conditions: concentrations as in Example 1
Experimental: (§1) The proliferation rates of the cell lines were determined after stimulation with (i) biperiden, (ii) mepazine, and (iii) stimulation with both active ingredients. For this purpose, cells were seeded in plates with 96 wells at 5000 cells per well and incubated overnight at 37° C. and 5% CO2. Next morning, the blanket values were measured at 490 nm in an ELISA reader (FLUOstar Omega, BMG LABTECH) after the addition of 100 μL medium and 20 μL MTT substrate (CellTiter 96 AQueous One Solution Cell Proliferation Assay, Promega). Biperiden was added in increasing concentrations (3.71 μg/ml, 11.1 μg/ml und 29.6 μg/ml) in the form of solutions of biperiden hydrochloride (B5311 SIGMA-Aldrich, USA) and DMSO. Mepazine was added in increasing concentrations (15 μM and 25 μM) in the form of solutions of mepazine hydrochloride (MALT1 Inhibitor II, Calbiochem Merck, Millipore Billerica, USA). Combinations of both mepazine and biperiden were added in the following concentrations: 15 μM mepazine+3.71 μg/ml biperiden; 25 μM mepazine+3.71 μg/ml biperiden. The ex-tinction was measured every 24 hours during a period of 72 hours. […]

Panc-2 = assay: MTT proliferation assay, Panc-2; type: cell-based, human
Experimental: (§2) The cell lines used for the proliferation assays were cultured in different media. The cell lines Pan-1, Panc-2 and BxPC3, which have been derived from the human ductal pancreatic adenocarcinoma (PDAC), were cultured in Dulbecco's modified Eagle medium (DMEM) (Sigma), that was supplemented with 1% penicillin/streptomycin (Life technologies/GIBCO 15140-122) and 10% fetal bovine serum (Life technologies/GIBCO 100500-064). The cell line L3.6pl was cultured in RPMI 1640 medium (Life technologies/GIBCO 72400-21) that was supplemented with 1% penicillin/streptomycin and 10% fetal bovine serum. A sub-clone of the cell line L3.6pl, that was designated L3.6pl res, was resistant to gemcitabine and was also cultured in RPMI 1640 medium (Life technologies/GIBCO 72400-21) that was supplemented with 1% penicillin/streptomycin, 10% fetal bovine serum and 2 μM gemcitabine (GEMZAR, Lily). The human immortalized, non-malignant cell line of the ductal pancreatic epithelium (HPDE) was cultured in keratinocyte-SFM (Life technologies/GIBCO) that was supplemented with 10% fetal bovine serum, 1% penicillin/streptomycin and 1% epidermal growth factor (EGF).
(§3) The proliferation rates of the cell lines were determined after stimulation with (i) biperiden, (ii) mepazine, and (iii) stimulation with both active ingredients. For this purpose, cells were seeded in plates with 96 wells at 5000 cells per well and incubated overnight at 37° C. and 5% CO2. Next morning, the blanket values were measured at 490 nm in an ELISA reader (FLUOstar Omega, BMG LABTECH) after the addition of 100 μL medium and 20 μL MTT substrate (CellTiter 96 AQueous One Solution Cell Proliferation Assay, Promega). Biperiden was added in increasing concentrations (3.71 μg/ml, 11.1 μg/ml und 29.6 μg/ml) in the form of solutions of biperiden hydrochloride (B5311 SIGMA-Aldrich, USA) and DMSO. […] The ex-tinction was measured every 24 hours during a period of 72 hours.
(§4) The normal distribution of the results was analyzed by Kolgomorov-Smirnov test and Shapiro-Wilk test. Non-parametric variables were analyzed using the Mann-Whitney-U test. […]

[2] = system: esophageal carcinoma cell lines OE19, OE33 und KYSE 140; assay: MTT proliferation assay, esophageal carcinoma cell lines; type: cell-based, human; conditions: OE19, OE33, KYSE 140; concentrations as in Example 1
Experimental: as §1

HPDE = assay: MTT proliferation assay, HPDE reference cell line; type: cell-based, human; conditions: for reaction of proliferation: mepazine, other doses of biperiden or a combination of mepazine and biperiden
Experimental: as §2, §3, §4

human Panc-1 tumor cells = assay: Mouse xenograft model with subcutaneous Panc-1 tumor cells; type: in vivo, pfp−/−/rag2−/− double knockout mice; conditions: for size of the subcutaneous tumor: daily i.p. treatment, 16 mg/kg mepazine; for size of the subcutaneous tumor / tumor sizes compared to the control groups: 10 mg/kg biperiden; for tumor sizes compared to the control groups: daily i.p., 16 mg/kg mepazine or both
Excerpt: For the mouse xenograft model pfp−/−/rag2−/− double knockout mice were used. […] Owing to the inactivated rag2 gene, the mouse lacks mature T or B lymphocytes. The mouse model was developed by the Taconic Institute (Quality Laboratory Animals and Services for Research, DK8680 Ry, Taconic Europe, Denmark) by crossing the PFPN12 mouse model with the RAGN12 mouse model. This model was back crossed over 12 generations (N12) with C57BL/6NTac, and the colony was maintained by homozygous pairing. The mouse model was used in the course of the present invention with PDAC cells of the cell line Panc-1, which were administered subcutaneously. 12 days after subcutaneous injection of 10^6 human Panc-1 tumor cells, the mice were treated daily either with 16 mg/kg mepazine i.p. (n=10), 10 mg/kg biperiden (n=10) i.p. or with a combination of both active ingredients, that is with 16 mg/kg mepazine and 10 mg/kg biperiden (n=10) i.p. The control group (n=10) was not treated. The daily treatment was performed under identical, standardized conditions. The same 3-days-cycle was used over the complete period of the study: day one comprised the injection of the medication and the determination of the bodyweight by weighing. Day 2 comprised the injection of the medication and the determination of the subcutaneous tumor growth with a caliper. Day 3 comprised the injection of the medication and neuroscoring. […] After euthanizing, the subcutaneous tumors were removed from the mice. Prior to the surgery, the body of the mouse was disinfected with ethanol. The skin above the tumor was carefully incised, and the tumor was surgically removed from the adjacent tissue. After removal, the tumor was weighed and measured. For evaluation only mice were used which had developed a tumor. […] The volumes of the subcutaneous tumors were measured with a caliper after removal and calculated using the formula length× width^2 as described in [8]. […] The average tumor size in the control group was 729.33 mm^3±186.25 mm^3 compared to 130.43 mm^3±63.96 mm^3 in the group that was treated with mepazine (p=0.002; one-sided Fisher's exact test).

Panc-1 = assay: MTT proliferation assay, Panc-1; type: cell-based, human
Experimental: The cell lines used for the proliferation assays were cultured in different media. The cell lines Pan-1, Panc-2 and BxPC3, which have been derived from the human ductal pancreatic adenocarcinoma (PDAC), were cultured in Dulbecco's modified Eagle medium (DMEM) (Sigma), that was supplemented with 1% penicillin/streptomycin (Life technologies/GIBCO 15140-122) and 10% fetal bovine serum (Life technologies/GIBCO 100500-064). The cell line L3.6pl was cultured in RPMI 1640 medium (Life technologies/GIBCO 72400-21) that was supplemented with 1% penicillin/streptomycin and 10% fetal bovine serum. […]
The proliferation rates of the cell lines were determined after stimulation with (i) biperiden, (ii) mepazine, and (iii) stimulation with both active ingredients. […] Next morning, the blanket values were measured at 490 nm in an ELISA reader (FLUOstar Omega, BMG LABTECH) after the addition of 100 μL medium and 20 μL MTT substrate (CellTiter 96 AQueous One Solution Cell Proliferation Assay, Promega). […] The ex-tinction was measured every 24 hours during a period of 72 hours.
as §4

## OC(CCN1CCCCC1)(c1ccccc1)C1CC2C=CC1C2 (stereo not shown) [biperiden]
[1]
  proliferation of lung carcinoma cell lines: inhibited proliferation
Panc-2; 29.6 μg/ml biperiden, trend, p=0.077
  reduction of proliferation rate: 98.2%
[2]
  proliferation of esophageal carcinoma cell lines: inhibited proliferation of esophageal carcinoma cell lines significantly
HPDE; 11.1 μg/ml biperiden
  proliferation: reduced slightly
HPDE
  reaction of proliferation: no statistically significant reaction
Human Panc-1 tumor cells; Panc-1 xenograft
  size of the subcutaneous tumor: significantly reduced
  tumor sizes compared to the control groups: visibly smaller
Human Panc-1 tumor cells; mice, 10 mg/kg biperiden i.p. daily
  compatibility of administration: good compatibility
Human Panc-1 tumor cells; mice, 10 mg/kg biperiden i.p. or 16 mg/kg mepazine and 10 mg/kg biperiden i.p., daily
  motor activity compared to mice that received mepazine or no medication: motorically more active

## CN1CCCC(CN2c3ccccc3Sc3ccccc32)C1 (stereo not shown) [mepazine]
[1]
  proliferation of lung carcinoma cell lines: inhibited proliferation
Panc-1; 15 μM mepazine, p=0.005
  reduction of proliferation: 97.7%
Panc-1; 25 μM mepazine, p=0.004
  proliferation: completely stopped
Panc-2; 15 μM mepazine, p=0.008
  reduction of proliferation rate: 56.1%
Panc-2; 25 μM mepazine, p=0.001
  reduction of proliferation rate: 86.9%
[2]
  proliferation of esophageal carcinoma cell lines: inhibited proliferation of esophageal carcinoma cell lines significantly
HPDE
  reaction of proliferation: no statistically significant reaction
Human Panc-1 tumor cells; Panc-1 xenograft, 16 mg/kg mepazine i.p. daily, ±63.96 mm^3, control 729.33 mm^3±186.25 mm^3, p=0.002
  average tumor size: 130.43 mm^3
Human Panc-1 tumor cells; Panc-1 xenograft
  size of the subcutaneous tumor: significantly reduced
  tumor sizes compared to the control groups: visibly smaller
